Data on 11 compounds can be found in PubChem BioAssay (NCI).

“And” between values parts separate entries of the source, which are not always exact repeats. Identical values can stand only once.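 How tested: cells in 96-well plates exposed to compound for 48 hours at five concentrations. Here, GI50 denotes the concentration required for 50% inhibition of growth. At the TGI there is no net growth.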 *1 amine or outer side, *2 acyl side, *3 side chain or, on linkers, in order; H or OH if unused. Where a SMILES comes first, the peptide text is derived from it. Bridges are numbered along the chain shown (N, C = ends). Roman numbers before positions name the chains, in order. [ ]: non-standard residue; d: D form. Actinocin(9to1) = Cc1c2oc3c(C)ccc(C(=O)[*:1])c3nc-2c(C(=O)[*:2])c(N)c1=O; NMeF = CN[CH](Cc1ccccc1)C(=O)O; Sar = CNCC(=O)O

Among the test systems are OVCAR-5 ovarian; OVCAR-8 ovarian; PC-3 prostate; HCT-15 colon; A498 renal; HS 578T breast; NCI/ADR-RES ovarian; SW-620 colon.
Common to all, as to assay: growth of human tumour cells (NCI), 48 h

`O=C(CCCCC(=O)N/N=C\c1ccccc1O)N/N=C\c1ccccc1O`: the GI50 in the assay with OVCAR-5 ovarian was greater than 100 µM; in the assay on OVCAR-8 ovarian, 2.6 µM; in the assay on PC-3 prostate, 5.65 µM; in the assay on HCT-15 colon, 2.02 µM; in the assay on A498 renal it was greater than 100 µM; in the assay on HS 578T breast, 15.2 µM. The TGI in the assay on OVCAR-5 ovarian, in the assay on OVCAR-8 ovarian, in the assay with PC-3 prostate, in the assay on HCT-15 colon, in the assay on A498 renal and in the assay with HS 578T breast was greater than 100 µM in each case.
For `Cc1c2oc3c(C)ccc(C(=O)NC4C(=O)NC(C(C)C)C(=O)N5CCCC5C(=O)N(C)CC(=O)N(C)C(Cc5ccccc5)C(=O)OC4C)c3nc-2c(C(=O)NC2C(=O)NC(C(C)C)C(=O)N3CCCC3C(=O)N(C)CC(=O)N(C)C(Cc3ccccc3)C(=O)OC2C)c(N)c1=O` (stereo not given) (I: TVP[Sar][NMeF] / II: TVP[Sar][NMeF]; ester I:1-I:C, II:1-II:C; linker I:N-II:N via Actinocin(9to1); configuration not given here), the GI50 in the assay on OVCAR-5 ovarian was < 0.01 µM and 0.0335 µM; with HCT-15 colon it was < 0.0147 µM and 0.0622 µM. The TGI is 2.01 µM and > 0.41 µM in the assay on OVCAR-5 ovarian; greater than 1 µM in the assay with NCI/ADR-RES ovarian; 1.27 µM and 0.139 µM in the assay on SW-620 colon; 0.132 µM and 0.054 µM in the assay on OVCAR-8 ovarian; 0.0325 µM and 0.142 µM in the assay on PC-3 prostate; greater than 31.6 µM with HCT-15 colon. The TGI in the assay on A498 renal was < 0.01 µM and 0.0378 µM; with HS 578T breast, < 0.01 µM and 0.0685 µM.
`COc1ccccc1C(=O)N(C)c1ccc(Cl)c(C(=O)OC(C)C)c1`: the TGI in the assay with OVCAR-5 ovarian, in the assay on NCI/ADR-RES ovarian, with SW-620 colon, in the assay with OVCAR-8 ovarian, with PC-3 prostate and in the assay on HCT-15 colon was greater than 100 µM throughout. The TGI in the assay on A498 renal and in the assay on HS 578T breast was greater than 100 µM throughout.
As to `CC(=O)[O-].O=C([CH-]C(=O)c1ccccc1)c1ccccc1.O=C([CH-]C(=O)c1ccccc1)c1ccccc1.[Sm+3]`, the GI50 with OVCAR-5 ovarian was 21.4 µM; with SW-620 colon it was 2.71 µM; with OVCAR-8 ovarian it was 2.13 µM; in the assay on HCT-15 colon, 5.5 µM; in the assay on A498 renal, 13.1 µM. In addition, the TGI in the assay on OVCAR-5 ovarian came out at 63.1 µM; with SW-620 colon it was 23.5 µM; in the assay on OVCAR-8 ovarian, 16.3 µM; with HCT-15 colon, 22.5 µM; in the assay with A498 renal, 37.2 µM.
Take `Nc1ncc(-c2cccc(S(N)(=O)=O)c2)c2scc(-c3ccc(F)c(Cl)c3)c12`: the GI50 is 9.09 µM with OVCAR-5 ovarian; 7.14 µM in the assay with NCI/ADR-RES ovarian; 6.21 µM with SW-620 colon; 6.38 µM in the assay with OVCAR-8 ovarian; 6.83 µM with PC-3 prostate; 6.59 µM in the assay with HCT-15 colon. Besides, the GI50 in the assay on A498 renal was 5.73 µM; with HS 578T breast, 7.23 µM. The TGI with OVCAR-5 ovarian is greater than 22.2 µM; with NCI/ADR-RES ovarian it was greater than 25 µM; in the assay on SW-620 colon, 14.3 µM; with OVCAR-8 ovarian, greater than 22.6 µM; in the assay with PC-3 prostate, greater than 20.6 µM; in the assay on HCT-15 colon it was greater than 25 µM. The values for the TGI in the assay with A498 renal and in the assay with HS 578T breast were 15.4 µM and 22 µM, respectively.
`O=C1C(Cl)=C(Nc2cccc(C(F)(F)F)c2)C(=O)N1Cc1ccc(Cl)cc1`: the GI50 in the assay on OVCAR-5 ovarian is 2.2 µM; with NCI/ADR-RES ovarian it was less than 0.0431 µM; in the assay on SW-620 colon it was 0.0609 µM; with OVCAR-8 ovarian, 0.699 µM; in the assay on PC-3 prostate, 0.298 µM; with HCT-15 colon, 0.166 µM. Also, the GI50 with A498 renal was 0.73 µM; in the assay on HS 578T breast, 0.711 µM. Further, the TGI in the assay on OVCAR-5 ovarian was 23.5 µM; in the assay with NCI/ADR-RES ovarian it was 12.3 µM; with SW-620 colon it was 16.9 µM; in the assay with OVCAR-8 ovarian, 23.3 µM; with PC-3 prostate it was 16.8 µM; in the assay on HCT-15 colon it was 12.5 µM. For the same compound, the TGI is 15.7 µM with A498 renal and 33 µM with HS 578T breast.
With `COc1cc(NC(=O)C2=C(N3CCOCC3)/C(=C/c3ccc(Cl)cc3)CC2)cc(OC)c1OC`, the GI50 with OVCAR-5 ovarian was greater than 100 µM; in the assay on NCI/ADR-RES ovarian, 42.5 µM; with SW-620 colon it was greater than 100 µM; in the assay on OVCAR-8 ovarian, 19.5 µM; with PC-3 prostate, 6.06 µM; in the assay with HCT-15 colon, greater than 100 µM. Moreover, the values for the GI50 with A498 renal and with HS 578T breast were 4.97 µM and 3.97 µM, respectively. In addition, the TGI with OVCAR-5 ovarian, in the assay with NCI/ADR-RES ovarian, in the assay on SW-620 colon, with OVCAR-8 ovarian, in the assay on PC-3 prostate and with HCT-15 colon was greater than 100 µM throughout. Moreover, the figures for the TGI in the assay with A498 renal and with HS 578T breast were 27.7 µM and 40.7 µM, respectively.
For the compound `C=C1C(=O)O[C@H]2[C@H]1CC/C(COC(=O)NCc1ccc(Cn3c(=O)sn(-c4ccccc4)c3=O)cc1)=C\CC[C@@]1(C)O[C@@H]21`, the GI50 in the assay with OVCAR-5 ovarian was 2.51 µM; with NCI/ADR-RES ovarian, 19.1 µM; with SW-620 colon, 1.91 µM; with OVCAR-8 ovarian it was 2.83 µM; in the assay on PC-3 prostate, 2.36 µM; in the assay with HCT-15 colon, 1.94 µM. For the same compound, the GI50 was 3.91 µM in the assay on A498 renal and 4.14 µM in the assay on HS 578T breast. Further, the TGI with OVCAR-5 ovarian turned out to be 6.73 µM; in the assay on NCI/ADR-RES ovarian, 63.3 µM; in the assay with SW-620 colon it was 3.78 µM; with OVCAR-8 ovarian, 8.55 µM; with PC-3 prostate, 5.63 µM; with HCT-15 colon, 3.88 µM. Besides, the TGI was found to be 14.5 µM with A498 renal and 33.1 µM in the assay with HS 578T breast.
In the case of `Cc1ccc(Sc2cc3c(oc2=O)-c2ccccc2OC3O)cc1` (stereo not given), the GI50 in the assay with OVCAR-5 ovarian is 23.9 µM; in the assay with NCI/ADR-RES ovarian it was 25.2 µM; in the assay on SW-620 colon, 22.4 µM; in the assay with OVCAR-8 ovarian, 27.8 µM; with PC-3 prostate, 28 µM; in the assay with HCT-15 colon it was 28.3 µM. The GI50 in the assay with A498 renal and in the assay with HS 578T breast was 26.1 µM each time. For the same compound, the TGI with OVCAR-5 ovarian was determined as 49 µM; in the assay with NCI/ADR-RES ovarian, 60.5 µM; with SW-620 colon, 52.3 µM; in the assay with OVCAR-8 ovarian, 71.3 µM; with PC-3 prostate it was 76.5 µM; with HCT-15 colon, 76.3 µM. The TGI worked out at 51.5 µM in the assay with A498 renal and 61.7 µM with HS 578T breast.
As to `O=C(O)/C(=C\c1ccncc1)c1cccc2ccccc12`, the TGI with OVCAR-5 ovarian, in the assay with NCI/ADR-RES ovarian, in the assay with SW-620 colon, in the assay on OVCAR-8 ovarian, with PC-3 prostate and in the assay on HCT-15 colon was greater than 100 µM throughout. Also, the TGI with HS 578T breast is greater than 100 µM.
Consider `CC(C)=CCCC(C)C1=C(O)C(=O)C(C)=CC1=O` (stereo not given), for which the TGI in the assay with OVCAR-5 ovarian is 33.5 µM; with NCI/ADR-RES ovarian, greater than 49.1 µM; in the assay with SW-620 colon it was greater than 50.4 µM; with OVCAR-8 ovarian, 40.9 µM; in the assay with PC-3 prostate it was 33 µM; in the assay with HCT-15 colon it was 5.75 µM. Besides, the TGI is 35.1 µM in the assay on A498 renal and greater than 79.3 µM with HS 578T breast.
